US20040110821A1, “GAL3 receptor antagonists for the treatment of affective disorders” (priority 2002, published 2004)

Test system: Male albino Sprague-Dawley rats
Experiment: Rat Social Interaction Test (SIT)
Assay type: in vivo
Conditions: for overall profile in the Social Interaction Test (conclusion in words): rat, in vivo
Experimental: Rats were allowed to acclimate to the animal care facility for 5 days and were housed singly for 5 days prior to testing. Animals were handled for 5 minutes per day. The design and procedure for the Social Interaction Test was carried out as previously described by Kennett, et al. (1997). On the test day, weight matched pairs of rats (±5%), unfamiliar to each other, were given identical treatments and returned to their home cages. Animals were randomly divided into 5 treatment groups, with 5 pairs per group, and were given one of the following i.p. treatments: Example 92 (10, 30 or 100 mg/kg), vehicle (1 ml/kg) or chlordiazepoxide (5 mg/kg). Dosing was 1 hour prior to testing. Rats were subsequently placed in a white perspex test box or arena (54×37×26 cm), whose floor was divided up into 24 equal squares, for 15 minutes. An air conditioner was used to generate background noise and to keep the room at approximately 74° F. All sessions were videotaped using a JVC camcorder (model GR-SZ1, Elmwood Park, N.J.) with either TDK (HG ultimate brand) or Sony 30 minute videocassettes. All sessions were conducted between 1:00-4:30 P.M. Active social interaction, defined as grooming, sniffing, biting, boxing, wrestling, following and crawling over or under, was scored using a stopwatch (Sportsline model no. 226, 1/100 sec. discriminability). The number of episodes of rearing (animal completely raises up its body on its hind limbs), grooming (licking, biting, scratching of body), and face washing (i.e. hands are moved repeatedly over face), and number of squares crossed were scored. Passive social interaction (animals are lying beside or on top of each other) was not scored. All behaviors were assessed later by an observer who was blind as to the treatment of each pair. At the end.of each test, the box was thoroughly wiped with moistened paper towels.
Male albino Sprague-Dawley rats (Taconic Farms, N.Y.) were housed in pairs under a 12 hr light dark cycle (lights on at 0700 hrs.) with free access to food and water.
Example 92 was dissolved in 100% DMSO (Sigma Chemical Co., St. Louis, Mo.). Chlordiazepoxide (purchased from Sigma Chemical Co., St. Louis, Mo.) was dissolved in double distilled water. The vehicle consisted of 50% DMSO (v/v). All drug solutions were made up 10 minutes prior to injection and the solutions were discarded.
Example 34 was dissolved in 5% lactic acid, v/v. The vehicle consisted of 100% dimethylacetamide (DMA) and this was used to make up all drug solutions. All drug solutions were made up fresh each day and any unused solutions were discarded at the end of the test day. The volume of drug solution administered was 1 ml/kg.
The social interaction data (time interacting, rearing and squares crossed) were subjected to a randomized, one-way ANOVA and post hoc tests conducted using the Student-Newman-Keuls test. The data were subjected to a test of normality (Shapiro-Wilk test). The data were analyzed using the GBSTAT program, version 6.5 (Dynamics Microsystems, Inc., Silver Spring, Md., 1997). All data are presented as means ±S.E.M.

SMILES | overall profile in the Social Interaction Test (conclusion in words) | ataxia or sedation accompanying decreased locomotor activity (100 mg/kg i.p.) | social interaction of familiar cage mates (familiar cage mates, another study (not reported)) | stereotypes or aggressive behaviors (i.p., Social Interaction Test)
Cc1ccc(Nc2cc(N3CCCCC3)nc(N3CCN(c4ncccc4C(F)(F)F)CC3)n2)cc1 [Example 34] | produces an anxiolytic-like action in the social interaction test |  |  | 
O=C1C(=Nc2cccc(C(F)(F)F)c2)c2ccccc2N1c1ccccc1 [Example 92, 1-PHENYL-3-[[3-(TRIFLUOROMETHYL)PHENYL]IMINO]-1,3-DIHYDRO-2H-INDOL-2-ONE] | has the profile of an anxiolytic-like drug in the Social Interaction Test | did not appear to be accompanied by ataxia or sedation | no significant increase in interaction | did not elicit stereotypes or produce aggressive behaviors
